“And” between values parts separate entries of the source, which are not always exact repeats. Equal entries are not always repeated. Where two headings read alike, the source gives them in different places.
Columns and labels:
UGS explants = conditions: for prostatic buds: 7 days
Method: As the prostate was not well developed in either mutant (FIG. 9B) or wildtype males at this stage, UGS explants from both Shh null mice and their littermates were grown in vitro to determine if prostatic budding could be induced (n=3).

ventral prostate (VP) [1] = experiment: Organ culture of P0 rat VPs: histology (Masson's trichrome) and p63/CK14 immunohistochemistry; type: cell-based; conditions: six days
Method: (§1) Anti-CK14 antibody was diluted at 1:100, and anti-p63 antibody (Santa Cruz Biotechnologies Inc., USA) was diluted at 1:500. […] Mitotic indices were calculated by counting the number of pan-cytokeratin-positive epithelial cells that were also BrdU-positive.
Prostatic ducts grow initially as solid cords, which then canalise, resulting in ducts that contain lumens. […] Normal prostatic ducts in rats consist of luminal secretory cells with underlying basal cells, forming a single lumen.

ventral prostate (VP) [2] = experiment: Organ culture of P0 rat VPs: BrdU incorporation, mitotic/proliferative index; type: cell-based; conditions: for % proliferative nuclei, mesenchyme: day 2; for % proliferative nuclei, epithelium: day 3
Method: as §1
[…] […] The percentage of proliferating cells was scored from three images of the peripheral tips of the organs (distal), and three images of the ducts closest to the urethra (proximal), totalling 27 distal and proximal counts for each treatment group.
The proliferative index of the epithelial and mesenchymal cell compartments was calculated for VPs cultured −/+T and −/+SHH after the addition of BrdU (FIG. 10D).

ventral prostate (VP) [3] = test system: ventral prostate (VP)
Method: Serum-free organ culture of P0 Wistar rat VPs was performed as previously described (Sugimura et al., 1996). […] The two-dimensional area and perimeter of organs was measured from live captured images using NIH Image software.
P0 VPs were grown in vitro for five days in the presence (+) or absence (−) of T and with (+) or without (−) 100 μg ml^−1 anti-SHH antibody (5E1) (FIG. 4A), after which their two-dimensional area was measured (FIG. 4B).
Effect of exogenous SHH on VP growth and branching. The effects of adding recombinant SHH to VPs grown in vitro was examined (FIG. 10). VPs were grown for 3 days −/+T and −/+recombinant SHH protein (n=6).

ventral prostate (VP) [4] = experiment: Organ culture of P0 rat VPs: peripheral epithelial bud tips per unit perimeter; type: cell-based; conditions: for mean bud tips per unit perimeter: six days; for mean bud tips per 1000 pixels perimeter: 3 days
Excerpt: We chose to analyse the effect of Cy on the prostatic epithelia of VPs grown in vitro. Epithelial bud tips situated at the periphery of VPs (total of 60 VPs from each of four treatment groups and 16 independent experiments) were counted and expressed as a ratio to organ perimeter, to account for the changes in organ size after treatments (FIG. 5C). The addition of Cy to organs cultured −T caused a significant increase in the number of peripheral tips per unit perimeter (−T=60.16±/−0.97 mean bud tips per unit perimeter versus −T +Cy=74.47+/−1.07; Student's t-test, P=1.31 e^−17). […] It is possible that the number of tips induced by T or Cy were the maximum for the in vitro system, thus additive effects may not be apparent due to the limitations of the system. […] An increase in peripheral tip number was also observed in VPs cultured with anti-SHH antibody (5E1) in the absence of T (−T=62.13+/−0.82 versus −T+5E1=93.03+/−1.08), with a similar peripheral tip number being observed between VPs cultured +T and +T+5E1 (+T=74.32+/−0.69 versus +T+5E1=79.21+/−1.28).
The number of peripheral bud tips from the cultured VPs was counted and expressed as a ratio to perimeter (FIG. 10C).

Shh transcripts [5] = experiment: RNase protection assay, female URs cultured three days; type: cell-based, rat; conditions: three days −/+T (10^−8 M)
Excerpt: (§2) DNA templates for Shh and Ptc riboprobes were synthesised by RT-PCR from P0 UGT cDNA and subcloned into pBluescript KSII+ (Stratagene, USA). PCR primers were designed using GenBank-published cDNA sequences (Shh: GenBank Accession No. NM_017221; Primers: L—[…] (SEQ ID No 1), R—[…] (SEQ ID No 2); Ptc: GenBank Accession No. AF079162; Primers L—[…] (SEQ ID No 3), R—[…] (SEQ ID No 4)). DNA templates for Cyclophilin (Cphn) and 28S riboprobes were from Ambion, Inc., USA. ^32P-labelled anti-sense riboprobes were transcribed, and RNase protection assays performed as previously described in detail (Thomson et al., 1997). RNase protected products from Shh, Ptc, Cphn and 28S riboprobes were 269 nucleotides (nt), 322 nt, 103 nt and 155 nt respectively. Gels were imaged using a Storm phosphorimager (Molecular Dynamics, USA) and transcript abundance was determined from the intensities of bands, calculated using ImageQuant V.1.2 (Molecular Dynamics, USA).
(§3) RPAs were performed to analyse Shh and Ptc transcripts levels in VPs and URs grown in vitro. VPs were cultured for six days in the presence or absence of T; or for five days with T followed by a one-day treatment with the AR antagonist cyproterone acetate (FIG. 3B). […] Similarly, in short-term cultures of VPs (seven hours or three days), no changes in transcript levels were observed (data not shown).

Ptc transcripts [6] = experiment: as above; type: cell-based, rat; conditions: three days −/+T (10^−8 M)
Excerpt: as §2, §3

Shh transcripts [7] = experiment: RNase protection assay, VPs grown in vitro; type: cell-based, rat; conditions: six days −/+T; or five days T then one day cyproterone acetate
Excerpt: as §2, §3

Ptc transcripts [8] = experiment: RNase protection assay, VPs grown in vitro; type: cell-based, rat; conditions: six days −/+T; or five days T then one day cyproterone acetate
Excerpt: as §2, §3

Shh transcripts [9] = conditions: explants cultured for three days; cited from earlier work
[10] = target: SONIC HEDGEHOG (SHH) protein, endogenous in cultured P0 Wistar rat ventral prostate (rat) (UniProt Q63673); experiment: cell-based or functional assay
SONIC HEDGEHOG (SHH) protein, endogenous in cultured P0 Wistar rat ventral prostate (rat), sequence (Q63673 25-198 limits assumed): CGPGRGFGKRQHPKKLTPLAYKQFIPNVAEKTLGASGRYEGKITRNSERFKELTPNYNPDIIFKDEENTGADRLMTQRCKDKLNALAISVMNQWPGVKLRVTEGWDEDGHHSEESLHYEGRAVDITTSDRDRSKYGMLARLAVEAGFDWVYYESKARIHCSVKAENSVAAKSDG

CC1=C2C[C@H]3[C@@H](CC=C4C[C@@H](O)CC[C@@]43C)[C@@H]2CC[C@]12O[C@@H]1C[C@H](C)CN[C@H]1[C@H]2C [Cy, cyclopamine]
toxicity to explants (UGS explants; 5 μM Cy): toxic and caused premature organ death
toxicity to explants (UGS explants; 10 μM Cy): toxic and caused premature organ death
prostatic buds (UGS explants; +T +5 μM Cy): present
prostatic buds (UGS explants; +T +10 μM Cy): present
CK14 expression (ventral prostate (VP) [1]; +T +Cy): very few CK14-positive cells in distal tips
canalisation (lumens) of prostatic ducts (ventral prostate (VP) [1]; +T +Cy): exhibited lumens in distal tips
p63 expression (ventral prostate (VP) [1]; +T +Cy): confined to the basal cell layer of all distal tips
appearance of epithelial tips (ventral prostate (VP) [1]; −T +Cy): did not alter the appearance of epithelial tips
mitotic nuclei in distal epithelial tips (ventral prostate (VP) [2]): 13.48%+/−0.93% and 16.28%+/−0.74%
effect on VP cultures (ventral prostate (VP) [3]): little or no effect
optimum concentration for growth inhibition (ventral prostate (VP) [3]): 1 µM
toxicity to VP organ cultures (organs dying prematurely) (ventral prostate (VP) [3]): toxic
mean bud tips per unit perimeter (ventral prostate (VP) [4]; +T +Cy): 69.84+/−1.13 bud tips per unit perimeter
mean bud tips per unit perimeter (ventral prostate (VP) [4]; −T +Cy): 74.47+/−1.07 bud tips per unit perimeter

C[C@]12CC[C@H]3[C@@H](CCC4=CC(=O)CC[C@@]43C)[C@@H]1CC[C@@H]2O [T, testosterone]
prostatic buds (UGS explants; +T): present
mitotic nuclei in distal epithelial tips (ventral prostate (VP) [2]; +T alone (Cy experiments), day six): 23.24%+/−1.86%
% proliferative nuclei, mesenchyme (ventral prostate (VP) [2]; +T alone (SHH experiments)): 17.81%+/−1.22%
% proliferative nuclei, epithelium (ventral prostate (VP) [2]; +T alone (SHH experiments)): 32.54%+/−1.65%
proliferation in proximal ducts (ventral prostate (VP) [2]; response to T): reduced
upregulation of Shh transcripts (Shh transcripts [5]): two-and-a-half-fold
change in Ptc transcript levels (Ptc transcripts [6]): no significant change
% area (2D area relative to −T) (ventral prostate (VP) [3]; +T alone (SHH experiments), 3 days): 127.05+/−5.12%
Shh transcript abundance (Shh transcripts [7]): No significant difference
Ptc transcript abundance (Ptc transcripts [8]): No significant difference
peripheral tip number (ventral prostate (VP) [4]; +T alone (5E1 experiments)): 74.32+/−0.69
mean bud tips per unit perimeter (ventral prostate (VP) [4]; +T alone (Cy experiments)): 71.80+/−0.83 bud tips per unit perimeter
mean bud tips per 1000 pixels perimeter (ventral prostate (VP) [4]; +T alone (SHH experiments)): 83.92+/−2.25 bud tips per 1000 pixels perimeter

CC(=O)O[C@]1(C(C)=O)CC[C@H]2[C@@H]3C=C(Cl)C4=CC(=O)[C@@H]5C[C@@H]5[C@]4(C)[C@H]3CC[C@@]21C [cyproterone acetate]
Shh transcript abundance (Shh transcripts [7]): No significant difference
Ptc transcript abundance (Ptc transcripts [8]): No significant difference

C[C@]12CCC(=O)C[C@@H]1CC[C@@H]1[C@@H]2CC[C@]2(C)[C@@H](O)CC[C@@H]12 [dihydrotestosterone]
increase in Shh transcripts (Shh transcripts [9]): five-fold

SHH: recombinant SHH protein (Research Diagnostics, USA)
% proliferative nuclei, mesenchyme (ventral prostate (VP) [2]; +T+SHH): 20.47%+/−1.07%
% proliferative nuclei, epithelium (ventral prostate (VP) [2]; +T+SHH): 30.46%+/−1.72%
reduction of epithelial cell proliferation (ventral prostate (VP) [2]; VPs grown +T, not statistically significant): 6%
reduction of epithelial cell proliferation (ventral prostate (VP) [2]; VPs grown −T): a third
% proliferative nuclei, epithelium (ventral prostate (VP) [2]; −T +SHH): 18.62%+/−2.06%
% proliferative nuclei, mesenchyme (ventral prostate (VP) [2]; −T+SHH): 19.45%+/−1.12%
% area (2D area relative to −T) (ventral prostate (VP) [3]; +T +SHH, 3 days): 123.03+/−6.75%
effect on mesenchyme of cultured VPs (ventral prostate (VP) [3]; recombinant SHH, 3 days, both −/+T): expansion of the mesenchyme around the periphery of VPs
mean bud tips per 1000 pixels perimeter (ventral prostate (VP) [4]; +T +SHH): 68.34+/−2.57 bud tips per 1000 pixels perimeter
mean bud tips per 1000 pixels perimeter (ventral prostate (VP) [4]; −T +SHH): 48.0+/−3.35 bud tips per 1000 pixels perimeter

anti-SHH antibody (clone 5E1, Developmental Studies Hybridoma Bank, University of Iowa)
decrease in growth of P0 rat ventral prostate in vitro (two-dimensional area, five days of culture, 100 ug/ml antibody) [10]: 20%
decrease in testosterone-induced growth of rat ventral prostates in vitro [10]: 50%
